Laboratory results from patent US20110244025A1, “MODIFIED OLIGORIBONUCLEOTIDE ANALOGS WITH ENHANCED IMMUNOSTIMULATORY ACTIVITY” (priority 2005, published 2011).
Entries after “also recorded” stand apart in the source; their conditions may differ. Where two headings read alike, the source gives them in different places. Oligonucleotides are written 5' to 3', each unit as a sugar letter and its base; * is a phosphorothioate linkage, no mark a phosphodiester; rarer units and linkages stand in square brackets, end groups in braces. Plain capitals give the bases only. r = 2'-OH (RNA)

How the values were obtained:
[1] = Stability against nuclease degradation in human serum (IP-RP-HPLC); assay type: in vitro ADME
Protocol: Oligoribonucleotides R-1075 (SEQ ID NO:206), without triethylene glycol (teg) modification, and R-1907, with teg modification, were analysed using ion-pair reverse phase high pressure liquid chromatography (IP-RP-HPLC) following incubation in water or human serum for 1 to 60 minutes. While both of these oligoribonucleotides have fully phosphorothioate backbones, R-1075 is more than twice as long (18 nucleotides) as R-1907 (8 nucleotides). R-1075 incubated in water for 1 minute produced a single, sharp peak upon IP-RP-HPLC. […] R-1907 also produced a single, sharp peak following incubation in water for 1 minute. […] In fact, the peak height for R-1907 decreased by only about 50 percent following incubation in human serum for 60 minutes.

[2] = tested on: human peripheral blood mononuclear cells (PBMC); assay: TNF-α production by human PBMC (ELISA of culture supernatants); assay type: cell-based; details: human PBMC from three donors, 24 hours, oligonucleotide 0.001-4 μM, in the presence of DOTAP (20 μg/ml); FIG. 3 and FIG. 4
Protocol: (§1) Human peripheral blood mononuclear cells (PBMC) were isolated from three donors and incubated for 24 hours in the presence of various test or control oligonucleotides or control conditions, in either the presence or absence of DOTAP (20 μg/ml). Oligonucleotides were added at different concentrations ranging from 0.001-4 μM. Culture supernatants were then collected and then analyzed by separate enzyme-linked immunosorbent assays (ELISAs) specific for human interferon alpha (IFN-α) and tumor necrosis factor alpha (TNF-α).
(§2) Control oligonucleotides and conditions included R-1012, rU*rU*rU*rU*rU*rU*rU*rU, where * represents phosphorothioate linkage and rU represents uridine; R-1075 (SEQ ID NO:206, fully phosphorothioate backbone), R-1362, rU*rU*rG*rU*rU*rG*rU*rU*rG*rU*rU*rG*rU*rU*rG*rU*rU*rG*rU*rU (SEQ ID NO:331), where * again represents phosphorothioate linkage, rU again represents uridine, and rG represents guanosine; CpG oligodeoxynucleotide 2395, T*C*G*T*C*G*T*T*T*T*C*G*G*C*G*C*G*C*G*C*C*G (SEQ ID NO:330), lipopolysaccharide (LPS), DOTAP, and no additive (w/o).
(§3) Test oligonucleotides included the following modifications of R-1012: R-1907, rU*rU*rU*rU*rU*rU*rU*rU-teg, where teg represents triethylene glycol; R-1908, rU*rU*rU*rU*rU*rU*rU*5SrU-teg, where 5S represents a linkage according to Formula II wherein X is O, X^1 is SH, X^2 is O, and X^3 is S; R-1909, rU*rU*rU*rU*rU*5SrU*rU*5SrU-teg; R-1910, rU*rU*rU*5SrU*rU*5SrU*rU*5SrU-teg; and R-1911, rU*5SrU*rU*5SrU*rU*5SrU*rU*5SrU-teg.

[3] = tested on: human peripheral blood mononuclear cells (PBMC); assay: IFN-α production by human PBMC (ELISA of culture supernatants); assay type: cell-based; details: human PBMC from three donors, 24 hours, oligonucleotide 0.001-4 μM, in the presence of DOTAP (20 μg/ml); FIG. 1 and FIG. 2
Protocol: as §1, §2, §3

R-1075: control oligoribonucleotide, SEQ ID NO:206 (CCGUCUGUUGUGUGACUC), fully phosphorothioate backbone, 18 nucleotides, without teg modification (rC*rC*rG*rU*rC*rU*rG*rU*rU*rG*rU*rG*rU*rG*rA*rC*rU*rC) [reference compound]
IP-RP-HPLC peak of the oligoribonucleotide after incubation in human serum ([1]; human serum, 1 minute, compared with incubation in water for 1 minute): essentially completely disappeared

rU*5SrU*rU*5SrU*rU*5SrU*rU*5SrU-teg [R-1911]
TNF-α production [2]: significantly higher amounts of TNF-a compared to unmodified R-1012
IFN-α production [3]: did not induce significant amounts of IFN-α

rU*rU*rU*5SrU*rU*5SrU*rU*5SrU-teg [R-1910]
TNF-α production [2]: significantly higher amounts of TNF-a compared to unmodified R-1012
IFN-α production [3]: did not induce significant amounts of IFN-α

rU*rU*rU*rU*rU*5SrU*rU*5SrU-teg [R-1909]
TNF-α production [2]: significantly higher amounts of TNF-a compared to unmodified R-1012
IFN-α production [3]: increase in IFN-α induction compared to R-1907

rU*rU*rU*rU*rU*rU*rU*5SrU-teg [R-1908]
TNF-α production [2]: significantly higher amounts of TNF-a compared to unmodified R-1012
IFN-α production [3]: increase in IFN-α induction compared to R-1907

rU*rU*rU*rU*rU*rU*rU*rU-teg [R-1907]
TNF-α production [2]: enhanced TNF-α production compared to unmodified R-1012; also recorded: significantly higher amounts of TNF-a compared to unmodified R-1012
IP-RP-HPLC peak of the oligoribonucleotide after incubation in human serum [1]: persisted essentially unchanged
decrease of IP-RP-HPLC peak height after incubation in human serum [1]: about 50%
IFN-α production [3]: reduced IFN-α production compared to unmodified R-1012
